Experimental data: patent publication EP0603240B1, “SAFENING HERBICIDAL PYRAZOLYLSULFONYLUREAS” (priority 1991, dated 1993)

Tests used:
Assay type in all cases: in vivo
[1] = test system: corn; assay: Example 8, Procedure II: Herbicide No. 1 + butachlor (No. 9) with antidotes
Procedure: (§1) Containers were filled and compacted with a fumigated silt loam top soil to a depth of about 1.3 cm from the top of the container. A first container was designated as an untreated control, a second container was designated as a herbicide control, and a third container was designated as a herbicide + antidote test container. Each of the containers was seeded with a crop species. A measured amount of herbicide dispersed or dissolved in acetone was applied to a measured quantity of soil. To this same quantity of soil treated with herbicide, there was added a measured amount of antidote dispersed or dissolved in acetone. The quantity of soil treated with the herbicide and antidote was thoroughly mixed to incorporate the herbicide and antidote in the soil uniformly. The seed bed in the third container of soil was covered with the soil treated with the herbicide and antidote and the container was leveled. For each test series, the seed beds of the first and second containers were likewise covered by soil layers. the cover layer of the first container was not treated with herbicide or antidote.
(§2) The containers were then placed on a bench in a greenhouse and sub-irrigated as required for the duration of the test. […] Plant response is measured in terms of percent injury. Antidote efficacy is indicated as the difference in plant injury by the herbicide(s) without the antidote and with the antidote.
(§3) This procedure is the same as Procedure I, but modified in the manner that after incorporation of the chemicals (herbicide and antidote) the containers with the covered seedbed were treated with an initial overhead irrigation equivalent to 0.6 cm rainfall, then subsequently sub-irrigated as required on greenhouse benches.
In this test, the efficacy of the same five antidotes used in Examples 6 and 7 was investigated in compositions comprising Herbicide No. 1 and as a co-herbicide, butachlor (Herbicide No. 9), active ingredient in MACHETE® herbicide, a leading commercial rice herbicide. The test procedure used in this example was the same as that in Examples 6 and 7.

[2] = test system: barnyardgrass (Echinochloa crusgalli); assay: Example 10, Procedure II: Herbicide No. 1 + propachlor (No. 5) with antidotes
Procedure: as §1, §2, §3
(§4) In the series of greenhouse tests described below, for routine screening purposes the herbicide/antidote compositions were tested in crop/weed combinations involving corn as the crop and either or both of the weeds barnyardgrass (Echinochloa crusgalli), a monocotyledonous weed, and velvetleaf (Abutilon theophrasti), a dicotyledonous weed. In the tables below, these weeds are indicated by the symbols "BYG" and "VL", respectively.
(§5) In this test, the safening effect of various antidotes on the herbicidal combination of Herbicide No. 1 and another α-chloroacetanilide co-herbicide, propachlor, (Herbicide No. 5) was investigated. Propachlor is the active ingredient in the commercial herbicide RAMROD®. Procedure II was also used in this test as in the preceding example.

[3] = test system: velvetleaf (Abutilon theophrasti); assay: as above
Procedure: as §1, §2, §3, §4, §5

[4] = test system: barnyardgrass (Echinochloa crusgalli); assay: Example 11, Procedure II: Herbicide No. 1 + metazachlor (No. 14) with antidotes
Procedure: as §1, §2, §3, §4
(§6) In this example, yet another α-chloroacetanilide co-herbicide, metazachlor (Herbicide No. 14) was combined with Herbicide No. 1 for investigation of the effect of various safeners on that composition. Metazachlor is the active ingredient in the commercial herbicide BUTISAN® S, used here as a 500 g/L formulation.

[5] = test system: velvetleaf (Abutilon theophrasti); assay: as above
Procedure: as §1, §2, §3, §4, §6

[6] = test system: Giant foxtail (Setaria fabergi); assay: Example 24, Procedure II: Herbicide No. 1 + co-herbicides Nos. 4, 6, 7, 12 with Antidote Nos. 15 and 17-21
In short: (§7)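 Greenhouse pots, herbicide No. 1 plus co-herbicides and antidote in acetone incorporated into silt loam soil covering the corn seed bed, with giant foxtail and velvetleaf; initial overhead irrigation equal to 0.6 cm rainfall, then sub-irrigation. Antidote at 2.24 kg/ha; percent injury read 13 days after application, duplicate average.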

[7] = test system: corn; assay: as above
In short: as §7

[8] = test system: velvetleaf (Abutilon theophrasti); assay: as above
In short: as §7

[9] = Herbicide No.1 0.14 kg/ha + Herbicide No.5 4.48 kg/ha, antidote rate 2.24 kg/ha
[10] = Herbicide No.1 0.14 kg/ha + Herbicide No.5 4.48 kg/ha, antidote rate 8.96 kg/ha
[11] = Herbicide No.1 0.56 kg/ha + Herbicide No.5 4.48 kg/ha, antidote rate 2.24 kg/ha
[12] = Herbicide No.1 0.56 kg/ha + Herbicide No.5 4.48 kg/ha, antidote rate 8.96 kg/ha
[13] = Herbicide No.1 0.56 kg/ha + Herbicide No.14 3.36 kg/ha, antidote rate 2.24 kg/ha
[14] = Herbicide No.1 0.56 kg/ha + Herbicide No.14 3.36 kg/ha, antidote rate 8.96 kg/ha
[15] = Herbicide No.1 1.12 kg/ha + Herbicide No.14 3.36 kg/ha, antidote rate 2.24 kg/ha
[16] = Herbicide No.1 1.12 kg/ha + Herbicide No.14 3.36 kg/ha, antidote rate 8.96 kg/ha
[17] = Herb. No. 1 0.07 Kg/ha + Co-Herb. No. 4 1.12 Kg/ha + antidote 2.24 Kg/ha
[18] = Herb. No. 1 0.07 Kg/ha + Co-Herb. No. 6 0.14 Kg/ha + antidote 2.24 Kg/ha
[19] = Herb. No. 1 0.07 Kg/ha + Co-Herb. No. 7 0.28 Kg/ha + antidote 2.24 Kg/ha
[20] = Herb. No. 1 0.07 Kg/ha + Co-Herb. No. 12 0.28 Kg/ha + antidote 2.24 Kg/ha
[21] = Herb. No. 1 0.14 Kg/ha + Co-Herb. No. 4 1.12 Kg/ha + antidote 2.24 Kg/ha
[22] = Herb. No. 1 0.14 Kg/ha + Co-Herb. No. 6 0.14 Kg/ha + antidote 2.24 Kg/ha
[23] = Herb. No. 1 0.14 Kg/ha + Co-Herb. No. 7 0.28 Kg/ha + antidote 2.24 Kg/ha
[24] = Herb. No. 1 0.14 Kg/ha + Co-Herb. No. 12 0.28 Kg/ha + antidote 2.24 Kg/ha
[25] = Herb. No. 1 0.28 Kg/ha + Co-Herb. No. 4 1.12 Kg/ha + antidote 2.24 Kg/ha
[26] = Herb. No. 1 0.28 Kg/ha + Co-Herb. No. 6 0.14 Kg/ha + antidote 2.24 Kg/ha
[27] = Herb. No. 1 0.28 Kg/ha + Co-Herb. No. 7 0.28 Kg/ha + antidote 2.24 Kg/ha
[28] = Herb. No. 1 0.28 Kg/ha + Co-Herb. No. 12 0.28 Kg/ha + antidote 2.24 Kg/ha
[29] = Herb. No. 1 0.56 Kg/ha + Co-Herb. No. 4 1.12 Kg/ha + antidote 2.24 Kg/ha
[30] = Herb. No. 1 0.56 Kg/ha + Co-Herb. No. 6 0.14 Kg/ha + antidote 2.24 Kg/ha
[31] = Herb. No. 1 0.56 Kg/ha + Co-Herb. No. 7 0.28 Kg/ha + antidote 2.24 Kg/ha
[32] = Herb. No. 1 0.56 Kg/ha + Co-Herb. No. 12 0.28 Kg/ha + antidote 2.24 Kg/ha

CC1(C)OC(c2ccco2)CN1C(=O)C(Cl)Cl (centres unmarked) [compound 15]
85%: % Injury BYG [2, 12] | % Injury VL [5, 15] | % Injury VL [5, 16] | % Inhibition VL [8, 19] | % Inhibition VL [8, 22]
75%: % Injury VL [3, 12]
0%: % Inhibition Corn [7, 17] | % Inhibition Corn [7, 19] | % Inhibition Corn [7, 23] | % Inhibition Corn [7, 27]
15%: % Injury Corn ([1]; Herbicide No.1 0.14 + No.9 2.24 kg/ha + antidote 8.96 kg/ha) | % Inhibition Corn [7, 29]
70%: % Injury VL [3, 9]
10%: % Injury Corn ([1]; Herbicide No.1 0.56 + No.9 2.24 kg/ha + antidote 2.24 kg/ha) | % Injury Corn ([1]; Herbicide No.1 0.56 + No.9 2.24 kg/ha + antidote 8.96 kg/ha) | % Inhibition Corn [7, 21] | % Inhibition Corn [7, 26] | % Inhibition Corn [7, 30]
100%: % Injury BYG [4, 13] | % Injury BYG [4, 14] | % Injury BYG [4, 15] | % Injury BYG [4, 16] | % Inhibition GFT [6, 18] | % Inhibition GFT [6, 19] | % Inhibition GFT [6, 22] | % Inhibition GFT [6, 23] | % Inhibition GFT [6, 26] | % Inhibition GFT [6, 27] | % Inhibition GFT [6, 28] | % Inhibition GFT [6, 31]
93%: % Injury BYG [2, 11]
20%: % Injury Corn ([1]; Herbicide No.1 0.14 + No.9 2.24 kg/ha + antidote 2.24 kg/ha)
5%: % Inhibition Corn [7, 18] | % Inhibition Corn [7, 20] | % Inhibition Corn [7, 22] | % Inhibition Corn [7, 24] | % Inhibition Corn [7, 25] | % Inhibition Corn [7, 28] | % Inhibition Corn [7, 31] | % Inhibition Corn [7, 32]
95%: % Inhibition VL [8, 18] | % Inhibition VL [8, 21] | % Inhibition VL [8, 23] | % Inhibition VL [8, 24] | % Inhibition VL [8, 25] | % Inhibition VL [8, 27] | % Inhibition VL [8, 29]
65%: % Inhibition GFT [6, 21]
98%: % Injury BYG [2, 9] | % Inhibition VL [8, 26] | % Inhibition VL [8, 28] | % Inhibition VL [8, 31]
90%: % Injury BYG [2, 10] | % Injury VL [5, 13] | % Injury VL [5, 14] | % Inhibition VL [8, 17] | % Inhibition VL [8, 20]
60%: % Inhibition GFT [6, 25] | % Inhibition GFT [6, 29]
80%: % Injury VL [3, 10] | % Injury VL [3, 11]
99%: % Inhibition GFT [6, 20] | % Inhibition GFT [6, 24] | % Inhibition GFT [6, 30] | % Inhibition GFT [6, 32] | % Inhibition VL [8, 30] | % Inhibition VL [8, 32]
40%: % Inhibition GFT [6, 17]
